Results: PMC10073126, “Levosimendan inhibits disulfide tau oligomerization and ameliorates tau pathology in Tau^P301L-BiFC mice” (Experimental & Molecular Medicine, 2023)

Tests used:
tau [1] = target: tau (Homo sapiens, UniProt P10636); assay: Tau-BiFC response in tau-BiFC cells (high-content imaging); format: cell-based; set-up: expressed in transfected cells; host or cells: HEK293 Tau-BiFC cells (G418-selected); details: 48 h of treatment
Tau^P301L-BiFC mice [2] = assay: Y-maze test; format: in vivo, mouse; details: 5 mg/kg i.p., three times a week, 4 months; vehicle TG 52.8 ± 2.6%
Experimental: (§1) For drug administration, LMTM and levosimendan were dissolved in PBS containing 40% polyethylene glycol (PEG; Sigma). Nine-month-old Tau^P301L-BiFC mice were intraperitoneally administered each drug for 4 months, three times a week, at a dosage of 5 mg/kg (n = 11 per group). Vehicle-treated Tau^P301L-BiFC mice and age-matched wild-type mice were used as control groups. Behavioral assessments were conducted as described below for one month from the end of drug administration. All mice were sacrificed at the age of 14 months for pathological analysis.
Mice (n = 11 per group) were tested for spontaneous alternation behavior in a Y-shaped maze (60 cm in length of each arm, 20 cm in depth) using a standard protocol. Spontaneous alternation for 8 min was calculated as the proportion of alternations. Alteration (%) was defined as consecutive entries in three different arms (ABCs) divided by the number of possible alterations (total arm entries minus 2)[43].

Tau^P301L-BiFC mice [3] = assay: AT8 immunofluorescence of brain tissue slices; format: in vivo, mouse; details: 5 mg/kg i.p., 4 months
Experimental: as §1
For immunofluorescence image analysis, brain tissue slices (n = 6–8 per group) were stained with AT8 (pS202/T205) antibody (1:200, Invitrogen). The primary antibody was detected using Alexa Flour 633-conjugated anti-mouse antibody (1:500, Abcam). Fluorescence images (λex = 620–640 nm and λem = 650–700 nm) were acquired using Axio Scan. Z1 (ZEISS).

tauK18 [4] = target: T1, tauK18 (Homo sapiens, UniProt P10636); assay: In vitro tau aggregation assay (thioflavin S); format: biochemical; details: 5 days; for EC50: tauK18 with heparin and DTT, read-out: EC50, inhibition of tau aggregation (ThS)
T1 construct: under in vitro conditions using a purified tauK18 fragment; 6xHis; made in house; host or cells: E. coli BL21 (DE3)
T1 sequence (P10636 561-685 limits assumed): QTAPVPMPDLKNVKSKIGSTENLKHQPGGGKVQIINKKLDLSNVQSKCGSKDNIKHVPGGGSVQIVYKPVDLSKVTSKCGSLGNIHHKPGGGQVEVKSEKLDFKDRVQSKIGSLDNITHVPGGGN
Experimental: To evaluate the inhibitory effect of drugs on tau aggregation, tauK18 protein (0.5 mg/mL) was incubated with each drug at various concentrations in the presence of DTT (100 μM) and heparin (0.1 mg/mL) at 37 °C for 5 days with vigorous shaking (220 rpm). For the tau disaggregation assay, the preformed aggregation mixture of tauK18 was incubated with each drug at 37 °C for 4 days with vigorous shaking (220 rpm). On the final day of incubation, the level of β-sheet aggregates was evaluated by thioflavin S (ThS) assay. For the ThS assay, 5 μL of each mixture was transferred to a black 384-well plate with 45 μL of PBS containing 10 μM ThS. ThS fluorescence (λex = 430 nm, and λem = 500 nm) was measured by using a Flexstation2 spectrophotometer (Molecular Devices).

Tau^P301L-BiFC mice [5] = assay: BiFC fluorescence imaging of brain tissue sections; format: in vivo, mouse; details: 5 mg/kg i.p., 4 months; for Tau-BiFC intensity in the hippocampus compared to vehicle-treated group: hippocampal CA1; for Tau-BiFC intensity in the cortex compared to vehicle-treated group: somatosensory cortex layer V
Experimental: as §1
Brain tissue sections (n = 8 per group) were mounted onto slides. To reduce autofluorescence, brain tissue sections were stained with Sudan Black B solution (70% ethanol containing 0.05% Sudan Black B) for 10 min, washed three times with PBS containing 0.1% Triton X-100 (Sigma), and then washed with distilled water. For counterstaining of nuclei, brain tissues were stained with Hoechst (0.5 μg/mL) for 30 min. BiFC fluorescence (λex = 460–490 nm and λem = 500–550 nm) images were acquired using Axio Scan. Z1 (ZEISS). For quantitative analysis, the mean BiFC fluorescence intensity was measured in the somatosensory cortex (layer V) and hippocampal CA1 from AP;−1.82. To normalize the background fluorescence between the brain samples, the habenular region was used as an internal control. Using ImageJ software (NIH), the region of interest was masked, and the fluorescence intensity value was calculated. Data are shown as the average and standard deviation of the mean fluorescence intensities of brain images from six to eight animals.

tauK18 [6] = target: T1, tauK18; assay: TauK18 oligomerization assay in vitro (SDS-PAGE); format: biochemical; details: 5 h, nonreducing SDS-PAGE, DMSO control 50 ± 1.1%
Experimental: To induce tau oligomerization, tauK18 (0.5 mg/mL dissolved in PBS, pH 7.4) was incubated with each drug in the presence of DTT (100 μM) and heparin (0.1 mg/mL) at RT for 5 h with vigorous shaking. Then, tau oligomers were separated on 4–20% SDS‒PAGE gels under reducing and nonreducing conditions and visualized by Coomassie blue staining.

tau [7] = assay: Tau immunoblot of primary hippocampal neuron lysates; format: cell-based, rat; details: primary neurons, tauK18^P301L; for Level of disulfide-linked tau oligomers compared to basal: nonreducing SDS-PAGE, control 1.8 ± 0.3-fold
Experimental: Band intensity was quantified using ImageJ software (NIH). All data were normalized to β-actin.
Primary hippocampal neurons were isolated from Day 18 embryonic Sprague‒Dawley rat brains as described previously. The neurons were seeded at a density of 3.5 × 10^5 cells per well on a poly-D-lysine-coated 6-well plate and maintained in neurobasal medium at 37 °C in a humidified atmosphere of 5% CO2. The neurobasal medium contained 2% B27 supplement, 0.5 mM GlutaMAX, 100 units/mL penicillin, and 100 μg/mL streptomycin. Every 3 days, 50% of the medium was replaced with fresh neurobasal medium. At DIV10, neurons were incubated with MB, LMTM (3 µM), or levosimendan (10 µM) in the presence of tauK18^P301L (10 µg/mL) for 48 h.

Tau^P301L-BiFC mice [8] = assay: Passive avoidance test; format: in vivo, mouse; details: 5 mg/kg i.p., three times a week, 4 months; compared with vehicle-treated TG
Experimental: as §1
The passive avoidance test was performed as described previously[44] with the following modifications. Mice (n = 8 per group) were adapted in the passive avoidance chamber (Gemini) for 10 min and then returned to their home cages. The chamber is composed of a light compartment and a dark compartment separated by a connecting gate. The following day, the mice were placed in the light compartment, and the gate was opened after 30 s. When mice entered the dark compartment, the gate was closed, and an electrical foot shock (3 mA) was delivered for 2 s. The mice were left in the dark compartment for 30 s after the foot shock so that they associated the environment with the aversive stimulus. The mice were then returned to their home cages. […] The step-through latency, the time required for mice to enter the dark compartment, was measured up to 540 s.

[9] = Tau-BiFC^ON by forskolin (30 μM)
[10] = Tau-BiFC^ON by tauK18^P301L (5 μg/mL)

tau (Homo sapiens, UniProt P10636), sequence (P10636 1-441 isoform P10636-8): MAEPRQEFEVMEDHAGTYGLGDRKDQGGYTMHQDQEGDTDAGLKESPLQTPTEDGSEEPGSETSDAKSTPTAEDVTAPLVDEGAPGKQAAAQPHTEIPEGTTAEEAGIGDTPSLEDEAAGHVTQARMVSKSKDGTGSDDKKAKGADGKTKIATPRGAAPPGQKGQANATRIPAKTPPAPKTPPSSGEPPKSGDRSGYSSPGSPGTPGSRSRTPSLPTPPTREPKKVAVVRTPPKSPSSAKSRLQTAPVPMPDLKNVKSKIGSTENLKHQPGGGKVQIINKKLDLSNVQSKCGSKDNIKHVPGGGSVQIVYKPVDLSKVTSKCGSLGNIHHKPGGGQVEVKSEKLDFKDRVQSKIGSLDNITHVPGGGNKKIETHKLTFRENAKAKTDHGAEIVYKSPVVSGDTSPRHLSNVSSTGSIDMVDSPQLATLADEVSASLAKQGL
tau (Homo sapiens, UniProt P10636), sequence (P10636 1-441 isoform P10636-8): as above

| Compound | EC50 (tau [1]; [9]) [µM] | EC50 (tau [1]; [10]) [µM] | Percent alternation (Tau^P301L-BiFC mice [2]) [%] | AT8 immunoreactivity in the cortex compared to vehicle-treated group (Tau^P301L-BiFC mice [3]) [fold] | AT8 immunoreactivity in the hippocampus compared to vehicle-treated group (Tau^P301L-BiFC mice [3]) [fold] | EC50 (tauK18 [4]) [µM] | Tau-BiFC intensity in the hippocampus compared to vehicle-treated group (Tau^P301L-BiFC mice [5]) [fold] | Tau-BiFC intensity in the cortex compared to vehicle-treated group (Tau^P301L-BiFC mice [5]) [fold] | Level of disulfide-linked tau oligomers (of total tau) (tauK18 [6]; 100 μM) [%] | Level of disulfide-linked tau oligomers compared to basal (tau [7]; 3 μM) [fold] | Latency of entering the dark compartment (Tau^P301L-BiFC mice [8]) | Inhibition of tau aggregation in vitro (ThS response) (tauK18 [4]; heparin-induced) | Level of disulfide-linked tau oligomers (of total tau) (tauK18 [6]; 10 μM) [%] | Level of disulfide-linked tau oligomers (of total tau) (tauK18 [6]; 30 μM) [%] | Level of disulfide-linked tau oligomers compared to basal (tau [7]; 10 μM) [fold] | Total tau level compared to basal (tau [7]; 10 μM, 48 h, control 1.5 ± 0.1-fold) [fold] | Tau phosphorylation at S199 compared to basal (tau [7]; 10 μM, 48 h, control 1.7 ± 0.1-fold) [fold] | Tau phosphorylation at S396 compared to basal (tau [7]; 10 μM, 48 h, control 2.0 ± 0.3-fold) [fold] |
| --- | --- | --- | --- | --- | --- | --- | --- | --- | --- | --- | --- | --- | --- | --- | --- | --- | --- | --- |
| CN(C)c1ccc2c(c1)Sc1cc(N(C)C)ccc1N2.CS(=O)(=O)O.CS(=O)(=O)O [LMTM, leucomethylene blue mesylate] | 2.2 ± 0.2 | 2.7 ± 0.2 | 68.9 ± 3.5 | 0.6 ± 0.2 | 0.5 ± 0.2 | 1.9 ± 0.2 | 0.6 ± 0.1 | 0.7 ± 0.2 | 79.2 ± 0.8 | 2.4 ± 0.3 | did not show significant improvement | – | – | – | – | – | – | – |
| C[C@@H]1CC(=O)NN=C1c1ccc(NN=C(C#N)C#N)cc1 [Levosimendan] | 1.9 ± 0.1 | 2.2 ± 0.1 | 70.4 ± 4.2 | 0.4 ± 0.1 | 0.4 ± 0.2 | 2.6 ± 0.1 | 0.4 ± 0.2 | 0.6 ± 01 | 12.3 ± 15.0 | – | delayed latency or not entering the chamber | strong anti-tau aggregation activity | 15.0 ± 6.0 | 15.7 ± 7.8 | 0.5 ± 0.1 | 1.0 ± 0.1 | 0.9 ± 0.1 | 0.9 ± 0.1 |
